# Test results as given in PubChem BioAssay AID2060326 (Molecular Pharmacology Branch, DTP, NCI, 2025).
# Several values for one entry are separate records, joined by “and”; a condition that tells them apart may be missing. Equal entries are not always repeated.
# Tested on: MDA-MB-468 multi-cell spheroids, viability
# Experiment: Anticancer human tumor MDA-MB-468 cell line growth inhibition [IpAb];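 also: spheroids exposed to agents for seven days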;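 as to viability, T/C: 100% = DMSO vehicle control viability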
# Settings: for viability, T/C: stronger effect = lower value
# Procedure, shortened: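 Combinations with ipatasertib or abemaciclib were tested on tumour spheroids holding HUVEC (25%) and MSC (15%) alongside 60% malignant cells. Top concentration was at or near clinical Cmax (10 microM if undefined), descending in half-log steps.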
# [1] = curve of first compound, second compound 0.01 µM
# [2] = curve of first compound, second compound 0.0316 µM
# [3] = curve of first compound, second compound 0.1 µM
# [4] = curve of first compound, second compound 0.316 µM
# [5] = curve of first compound, second compound 1 µM
# [6] = second compound 0.01 µM, first compound 0.0316 µM
# [7] = second compound 0.01 µM, first compound 0.1 µM
# [8] = second compound 0.01 µM, first compound 0.316 µM
# [9] = second compound 0.01 µM, first compound 1 µM
# [10] = second compound 0.01 µM, first compound 3.16 µM
# [11] = second compound 0.01 µM, first compound 10 µM
# [12] = second compound 0.0316 µM, first compound 0.0316 µM
# [13] = second compound 0.0316 µM, first compound 0.1 µM
# [14] = second compound 0.0316 µM, first compound 0.316 µM
# [15] = second compound 0.0316 µM, first compound 1 µM
# [16] = second compound 0.0316 µM, first compound 3.16 µM
# [17] = second compound 0.0316 µM, first compound 10 µM
# [18] = second compound 0.1 µM, first compound 0.0316 µM
# [19] = second compound 0.1 µM, first compound 0.1 µM
# [20] = second compound 0.1 µM, first compound 0.316 µM
# [21] = second compound 0.1 µM, first compound 1 µM
# [22] = second compound 0.1 µM, first compound 3.16 µM
# [23] = second compound 0.1 µM, first compound 10 µM
# [24] = second compound 0.316 µM, first compound 0.0316 µM
# [25] = second compound 0.316 µM, first compound 0.1 µM
# [26] = second compound 0.316 µM, first compound 0.316 µM
# [27] = second compound 0.316 µM, first compound 1 µM
# [28] = second compound 0.316 µM, first compound 3.16 µM
# [29] = second compound 0.316 µM, first compound 10 µM
# [30] = second compound 1 µM, first compound 0.0316 µM
# [31] = second compound 1 µM, first compound 0.1 µM
# [32] = second compound 1 µM, first compound 0.316 µM
# [33] = second compound 1 µM, first compound 1 µM
# [34] = second compound 1 µM, first compound 3.16 µM
# [35] = second compound 1 µM, first compound 10 µM
smiles,measurement,setting,value
CC1(C)CCC(CN2CCN(c3ccc(C(=O)NS(=O)(=O)c4ccc(NCC5CCOCC5)c([N+](=O)[O-])c4)c(Oc4cnc5[nH]ccc5c4)c3)CC2)=C(c2ccc(Cl)cc2)C1 + CCN1CCN(Cc2ccc(Nc3ncc(F)c(-c4cc(F)c5nc(C)n(C(C)C)c5c4)n3)nc2)CC1,IC50,[1],3130 nM
same,IC50,[2],4240 nM
same,IC50,[3],3040 nM
same,IC50,[4],4280 nM
same,IC50,[5],2040 nM
same,"viability, T/C",[6],96.2%
same,"viability, T/C",[7],81.1%
same,"viability, T/C",[8],82.5%
same,"viability, T/C",[9],85%
same,"viability, T/C",[10],49.7%
same,"viability, T/C",[11],10.2%
same,"viability, T/C",[12],88.6%
same,"viability, T/C",[13],86.9%
same,"viability, T/C",[14],89.8%
same,"viability, T/C",[15],74.8%
same,"viability, T/C",[16],66.2%
same,"viability, T/C",[17],9.92%
same,"viability, T/C",[18],92.1%
same,"viability, T/C",[19],96.6%
same,"viability, T/C",[20],105%
same,"viability, T/C",[21],109%
same,"viability, T/C",[22],48.1%
same,"viability, T/C",[23],9.29%
same,"viability, T/C",[24],99.3%
same,"viability, T/C",[25],109%
same,"viability, T/C",[26],94.9%
same,"viability, T/C",[27],94.1%
same,"viability, T/C",[28],64.1%
same,"viability, T/C",[29],9.61%
same,"viability, T/C",[30],75.4%
same,"viability, T/C",[31],86.5%
same,"viability, T/C",[32],78.8%
same,"viability, T/C",[33],77.9%
same,"viability, T/C",[34],32.9%
same,"viability, T/C",[35],5.14%
CCCS(=O)(=O)Nc1ccc(F)c(C(=O)c2c[nH]c3ncc(-c4ccc(Cl)cc4)cc23)c1F + CCN1CCN(Cc2ccc(Nc3ncc(F)c(-c4cc(F)c5nc(C)n(C(C)C)c5c4)n3)nc2)CC1,IC50,[1],> 10000 nM
same,IC50,[2],> 10000 nM
same,IC50,[3],> 10000 nM
same,IC50,[4],> 10000 nM
same,IC50,[5],5030 nM
same,"viability, T/C",[6],89.8%
same,"viability, T/C",[7],88.3%
same,"viability, T/C",[8],101%
same,"viability, T/C",[9],124%
same,"viability, T/C",[10],108%
same,"viability, T/C",[11],88.7%
same,"viability, T/C",[12],104%
same,"viability, T/C",[13],91.1%
same,"viability, T/C",[14],99.1%
same,"viability, T/C",[15],113%
same,"viability, T/C",[16],79.5%
same,"viability, T/C",[17],57.5%
same,"viability, T/C",[18],106%
same,"viability, T/C",[19],114%
same,"viability, T/C",[20],104%
same,"viability, T/C",[21],117%
same,"viability, T/C",[22],99.5%
same,"viability, T/C",[23],51.4%
same,"viability, T/C",[24],102%
same,"viability, T/C",[25],103%
same,"viability, T/C",[26],104%
same,"viability, T/C",[27],98.4%
same,"viability, T/C",[28],111%
same,"viability, T/C",[29],64.1%
same,"viability, T/C",[30],76.9%
same,"viability, T/C",[31],78.4%
same,"viability, T/C",[32],85.7%
same,"viability, T/C",[33],74.2%
same,"viability, T/C",[34],66.5%
same,"viability, T/C",[35],26.2%
CCN1CCN(Cc2ccc(Nc3ncc(F)c(-c4cc(F)c5nc(C)n(C(C)C)c5c4)n3)nc2)CC1,"viability, T/C",compound 0.1 µM,102% [middle of 13 runs]
same,IC50,"compound alone, run of 05/18/2021",> 1000 nM
Cn1cnc2c(F)c(Nc3ccc(Br)cc3Cl)c(C(=O)NOCCO)cc21,"viability, T/C",compound 0.00949 µM,87.3% and 84.9%
same,"viability, T/C",compound 0.03 µM,92.3% and 85%
same,"viability, T/C",compound 0.0949 µM,65.1% and 77.8%
same,"viability, T/C",compound 0.3 µM,72% and 68.5%
same,"viability, T/C",compound 0.949 µM,59.6% and 59.1%
same,"viability, T/C",compound 3 µM,39.2% and 26.2%
same,IC50,curve of compound,1560 nM and 1200 nM
COc1c(OCCCN2CCOCC2)ccc2c3n(c(=NC(=O)c4cnc(N)nc4)nc12)CCN3,"viability, T/C",compound 0.00316 µM,89% and 95.1%
same,"viability, T/C",compound 0.01 µM,95% and 91.5%
same,"viability, T/C",compound 0.0316 µM,73% and 72.7%
same,"viability, T/C",compound 0.1 µM,63.9% and 66.5%
same,"viability, T/C",compound 0.316 µM,25.6% and 23.6%
same,"viability, T/C",compound 1 µM,4.06% and 3.22%
same,IC50,curve of compound,141 nM and 139 nM
Cn1ncc(Cl)c1-c1cc(C(=O)NC(CN)Cc2cccc(F)c2)sc1Cl (stereo not drawn),"viability, T/C",compound 0.0316 µM,82.3% and 88.3%
same,"viability, T/C",compound 0.1 µM,61.5% and 72.7%
same,"viability, T/C",compound 0.316 µM,55.5% and 61.2%
same,"viability, T/C",compound 1 µM,32.6% and 32.4%
same,"viability, T/C",compound 3.16 µM,15.9% and 11.8%
same,"viability, T/C",compound 10 µM,0.22% and 0.21%
same,IC50,curve of compound,330 nM and 460 nM
